{"source": "patent US10973748B2", "about": "“Compositions and methods for lightening skin and reducing hyperpigmentation” (Versitech Limited, priority 2016, dated 2021)", "key": {"[1]": {"test_system": "melan-a cells", "experiment": "Cell survival rate (CCK-8 assay)", "type": "cell-based, murine", "conditions": "72 hrs, concentration equal to or lower than 20 μM", "experimental": "Murine melan-a cells (an immortalized, non-tumorigenic murine melanocyte cell line) were obtained from Chinese University of Hong Kong. Cells were cultured in RPMI 1640 medium. Culture medium was supplemented with 10% FBS and 1% penicillin-streptomycin and the cells were incubated at 37° C. in 5% CO2. Melan-a cells were incubated with tetradecanoyl phorbol acetate (TPA) at a concentration of 200 nM. The tested chemical agents (e.g., 6-CEPN and Kojic acid) were individually dissolved as a stock solution at a concentration of 100 mM in 100% dimethyl sulfoxide (DMSO). The stock solution was diluted using culture medium to the desired final concentrations immediately prior to use.\nMelan-a cells (10,000 cells/well) were plated in 100 μL 96-well multidishes for at least 24 hours (hrs) prior to use. The cells were treated with serial concentrations of tested chemicals for 72 hrs. After the indicated incubation time, cells were washed three times using PBS and then treated with CCK-8 solution (0.5 mg/mL) for 1.5 hours. Absorbance was measured at 490 nm using Victor X4 Multilabel Plate Reader (PerkinElmer, Mass., USA). Values were expressed as the mean cell viability as a percentage of that of the vehicle DMSO (0.1% final volume)-treated cultures."}, "[2]": {"test_system": "tyrosinase-related protein-2 (TRP2)", "experiment": "Western blotting of TRP-2 protein level in melan-a cells", "type": "cell-based, murine", "conditions": "α-MSH, 72 hrs, 20 μM", "experimental": "Melan-a cells (3×10^5 cells/well) were seeded in 4 mL of culture medium in a 6-well plate for at least 24 hrs prior to use. The cells were treated with α-MSH (1 μM) alone, α-MSH plus plus different concentration of agents for 72 hrs. The cells were washed with cold PBS and then lysed in 100 μL of RIPA buffer containing 1% Nonidet P-40, 0.1% sodium dodecylsulfate, 0.5% sodium deoxycholate, and 2% protease inhibitor at 4° C. Samples were centrifuged at 14,000 rpm for 30 mins at 4° C., and total proteins in the supernatant were separated. 10 μg of denatured proteins were loaded per lane, and separated by 10% SDS-PAGE gel. Proteins were then transferred to Immobilon-P Transfer Membranes (Millipore Co., Bed-ford, Mass.) by semidry transfer. Membranes were incubated with primary antibodies specific for Tyrosinase, tyrosinase-related protein-1 (TRP1), tyrosinase-related protein-2 (TRP2), and microphthalmia-associated transcription factor (MITF). The blots were subsequently washed and incubated with the appropriate secondary antibodies. Immunoreactive protein bands were visualized with enhanced chemiluminescence western blotting detection reagents and quantified using an ODYSSEY Fc Imaging system. The amounts of protein loaded were normalized against a control protein, β-actin."}, "[3]": {"test_system": "melan-a cells", "experiment": "Melanosome autophagy by fluorescence microscopy", "type": "cell-based, murine", "conditions": "α-MSH, rapamycin 0.5 μM 24 hrs, 6-CEPN 10 μM, 8-CEPQ 5 μM 72 hrs", "experimental": "Melan-a cells (1.5×10^5 cells/well) were seeded on coverslips in 6-well palte. The cells were treated with (1) α-MSH (1 μM) alone for 24 hrs, (2) α-MSH (1 μM) plus rapamycin (0.5 μM) for 24 hrs, (3) α-MSH (1 μM) plus 6-CEPN (10 μM), or (3) α-MSH (1 μM) plus 8-CEPQ (5 μM) for 72 hrs. Culture medium was removed carefully after the cells reached 50%˜70% level of confluence. Cells were stained by microscopy dual detection reagents (autophagy detection kit, Abcam) for 30 mins at 37° C. The stained cells were analyzed by wide-field fluorescence microscopy (60× magnification). Standard FITC filter and DAPI filter were set to image the autophagic signal and the nuclear signal, respectively."}, "[4]": {"test_system": "microtubule-associated protein light chain 3 (LC-3)", "experiment": "Western blot of LC-3 conversion (autophagy marker)", "type": "cell-based, murine", "conditions": "melan-a cells, α-MSH and TPA, 72 hrs, 6-CEPN 10 or 20 μM", "experimental": "Melan-a cells (3×10^5 cells/well) were seeded in a 6-well plate with 4 mL RPMI 1640 medium and 10% FBS. Melan-a cells were then transfected with 10 nM siRNA against autophagy-related protein 7 (ATG-7) or with the same concentration of a control siRNA, using HiPerfect Transfection Reagent. After 72 hrs of incubation, cell culture medium was replaced. Cells were then treated for 72 hrs with (1) α-MSH (1 μM) and TPA; (2) α-MSH (1 μM), TPA, and 6-CEPN (10 μM); or (3) α-MSH (1 μM), TPA, and 6-CEPN (20 μM). Total protein of cells was collected as described in the Western blotting in Example 2. The expressions of autophagy related proteins ATG-7 and microtubule-associated protein light chain 3 (LC-3) were analyzed by Western blot. LC-3 was selected because it was widely used to monitor autophagy. LC-3 can convert from a cytosolic form (i.e., LC-3 I) to a lipidated form (i.e., LC-3 II), the latter of which is attached to the autophagosome membrane (Mizushima N, et al., Autophagy, 3(6): 542-545 (2007)). ATG-7 is a required component in the conjugation of other autophagy-related proteins (e.g., the conjugation between ATG-12 and […]), which ultimately leads to the formation of autophagosome (“Autophagy Signaling Pathway,” Cell Signaling Technology, revised online October 2012)."}, "[5]": {"test_system": "MelanoDerm (Mel-300-A) epidermal equivalents containing melanocytes", "experiment": "Solvable Melanin assay in artificial skin model", "type": "cell-based, human", "conditions": "14 days, rapamycin 2.5 μM, 6-CEPN 10 μM, 8-CEPQ 5 μM", "experimental": "Epidermal equivalents containing melanocytes (Mel-300-A) were maintained according to the manufacturer's instructions. Mel-300-A tissue was cultured in EPI-100-NMM-113 medium for 14 days. Agents were dissolved in tissue culture medium and changed every other day. The test agents were either (1) rapamycin (2.5 μM), as the positive control in depigmentation, (2) 6-CEPN (10 μM), or (3) 8-CEPQ (5 μM). The concentration of rapamycin used was lower than 6-CEPN and 8-CEPQ, as rapamycin is toxic to cells at higher concentration. Pigmentation of these skin equivalents was compared against treatment of cells with a culture medium only (denoted as “vehicle”). Tissue viability was assessed on day 14 by CCK-8 assay as described in Example 1. On day 14, single tissues were harvested and photographed. The L* parameter was used to evaluate skin lightening or darkening. The lighter the skin, the greater the L* value. ΔL* value was measured by a Chroma Meter CR400 (Konica Minolta) for an evaluation of lightening as a function of time. Three tissues for each treatment were frozen for the Solvable Melanin assay (Bessou-Touya et al., “Chimeric human epidermal reconstructs to study the role of melanocytes and keratinocytes in pigmentation and photoprotection.” Journal of investigative dermatology 111(6):1103-1108 (1998)). Additional tissues were fixed by 10% formanin. […]"}}, "data": [{"smiles": "O=C1C[C@@H](c2ccc(O)cc2)Oc2cc(O)c(/C=C/c3ccccc3)c(O)c21", "note": "[6-CEPN, 6-C-(E-phenylethenyl)-naringenin]", "values": [{"measurement": "cell survival rate", "setting": "[1]", "value": "no significant decrease"}, {"measurement": "protein level of TRP-2", "setting": "[2]", "value": "significantly suppressed"}, {"measurement": "melanosome autophagy", "setting": "[3]", "value": "induced melanosome autophagy"}, {"measurement": "conversion of LC-3 I to LC-3 II", "setting": "[4]", "value": "increased the conversion of LC-3 I to LC-3 II"}, {"measurement": "amount of melanin in human skin equivalents", "setting": "[5]", "value": "significantly inhibited the amount of melanin"}]}]}
